No end group written: not given here. *: point of attachment. Biotin = O=C1N[C@H]2[C@H](CS[C@H]2CCCCC(=O)*)N1
Assays:
PDK1 [1] = system: PDK1; design: method as in PMID 20051961; details: read-out: IC50, in vitro inhibitor of PDK1; cited from earlier work
PDK1 [2] = molecular target: T1, PDK1 (Homo sapiens, UniProt O15530); assay: PDK1 activity assay with T308tide and [γ32P]ATP; assay type: biochemical; details: isolated catalytic domain
T1 construct: made in house; host or cells: HEK293 (GST fusion) or Sf9 insect cells (His form)
T1 sequence (O15530 1-359): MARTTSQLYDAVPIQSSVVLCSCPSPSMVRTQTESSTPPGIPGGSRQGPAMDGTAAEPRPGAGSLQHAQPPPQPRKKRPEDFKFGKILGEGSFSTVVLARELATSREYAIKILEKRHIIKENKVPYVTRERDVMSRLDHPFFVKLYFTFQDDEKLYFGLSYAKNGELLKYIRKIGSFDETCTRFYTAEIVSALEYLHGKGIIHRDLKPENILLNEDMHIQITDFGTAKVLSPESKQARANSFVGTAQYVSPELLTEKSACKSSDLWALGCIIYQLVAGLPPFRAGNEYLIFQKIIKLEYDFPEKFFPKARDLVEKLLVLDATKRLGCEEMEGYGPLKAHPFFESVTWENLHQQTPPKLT
Procedure: The PDK1 activity assay using T308tide as a substrate was performed essentially as previously described ([18], [28], [54]). In brief, the assay was performed in a 20 μl format containing 50 mM Tris pH 7.5, 0.05 mg/ml BSA, 0.1% ß-mercaptoethanol, 10 mM MgCl2, 100 μM [γ^32P]ATP (5-50 cpm/pmol), 0.003% Brij, 150-500 ng PDK1, and T308tide (0.3 mM) at room temperature. The assay was performed in 96 well plated and stopped by the addition of 5 μl of 0.1 % phosphoric acid. 4 μl aliquots were spotted on p81 phosphocellulose papers (Whatmann) using ep motion 5070 (Eppendorf). The phosphocellulose papers were washed in 0.01% phosphoric acid, dried, and exposed using PhosphoImager (FLA-9000 Starion). Data were analyzed with ImageQuant software (Fujifilm). Activity measurements were performed in technical duplicates or triplicates with less than 10% difference between replicates. Experiments were repeated at least twice. The activity measurements of PDK1 towards GS-022 and GS-023 were performed similarly, with the GS-peptides replacing T308tide at the indicated concentrations. GS-022 and GS-023 have features consistent with the loose characteristics disclosed for the peptide Ser/Thr 07, ((R/K)1-3(X)0-2 (S/T) (X)0-2(R/K)1-3, where X is any residue) used by the commercial “PDK1 Direct” assay.

PDK1_1-556 = molecular target: T2, PDK1_1-556 (Homo sapiens, UniProt O15530); assay: Differential scanning fluorimetry, thermal stability of PDK1_1-556; assay type: binding
T2 construct: effect of HYG8 on the thermal stability (ΔTm) of PDK1_1-556 (H) and PDK1_50-359 (I); His (N); made in house; host or cells: Sf9 insect cells (baculovirus)
T2 sequence (O15530 1-556): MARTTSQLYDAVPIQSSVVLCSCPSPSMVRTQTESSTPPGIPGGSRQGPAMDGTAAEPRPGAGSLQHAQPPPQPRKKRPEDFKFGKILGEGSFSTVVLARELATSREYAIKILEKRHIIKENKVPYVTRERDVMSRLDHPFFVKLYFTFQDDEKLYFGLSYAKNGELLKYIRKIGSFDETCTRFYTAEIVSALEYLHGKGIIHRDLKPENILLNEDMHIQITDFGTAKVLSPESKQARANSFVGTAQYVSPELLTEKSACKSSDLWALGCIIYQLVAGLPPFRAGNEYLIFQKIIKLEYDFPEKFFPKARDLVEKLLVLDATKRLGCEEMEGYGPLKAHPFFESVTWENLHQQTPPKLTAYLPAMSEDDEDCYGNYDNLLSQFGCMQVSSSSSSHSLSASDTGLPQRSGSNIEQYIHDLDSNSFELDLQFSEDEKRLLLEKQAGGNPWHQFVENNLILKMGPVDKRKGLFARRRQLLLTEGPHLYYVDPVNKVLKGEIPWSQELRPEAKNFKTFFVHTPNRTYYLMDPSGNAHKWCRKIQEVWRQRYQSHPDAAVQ
Procedure: (§1) The thermal stability of PDK1 was assessed by monitoring the unfolding of PDK1 by the increase in the fluorescence of SYPRO Orange (Invitrogen) using a real-time PCR device (StepOnePlus, Applied Biosystems and BioRad CFX96) following a previously described protocol ([70]). The reactions were performed in a final volume of 10 μl in white 96-well PCR microtiter plates (Greiner) and contained 1 μM PDK1, 10 mM HEPES (pH 7.5), 150 mM NaCl, 1/1000 SYPRO Orange and 1 mM dithiothreitol. For valsartan, the assay buffer was modified to exclude NaCl. PIFtide or compounds (at a final DMSO concentration of 1%) were added to this reaction mixture. The temperature gradient was performed in steps of 0.3 °C in the range from 25 to 70 °C. To calculate the Tm values, data were exported to GraphPad Prism and curves fitted to a Boltzmann sigmoidal equation with an acceptable confidence interval of 95%. Statistical analysis was performed with Infostat software (http://www.infostat.com.ar) and GraphPad Prism by first verifying a normal distribution of pooled residuals (Shapiro-Wilks test) and homogeneity of variance (F test), and then performing a one-way ANOVA followed by the post hoc comparisons test indicated in each figure legend.

PDK1_50-359 = molecular target: T3, PDK1_50-359 (Homo sapiens, UniProt O15530); assay: Differential scanning fluorimetry, thermal stability of PDK1_50-359 (catalytic domain); assay type: binding
T3 construct: His (N); made in house; host or cells: insect cells (stated for the crystallography batch)
T3 sequence (O15530 50-359): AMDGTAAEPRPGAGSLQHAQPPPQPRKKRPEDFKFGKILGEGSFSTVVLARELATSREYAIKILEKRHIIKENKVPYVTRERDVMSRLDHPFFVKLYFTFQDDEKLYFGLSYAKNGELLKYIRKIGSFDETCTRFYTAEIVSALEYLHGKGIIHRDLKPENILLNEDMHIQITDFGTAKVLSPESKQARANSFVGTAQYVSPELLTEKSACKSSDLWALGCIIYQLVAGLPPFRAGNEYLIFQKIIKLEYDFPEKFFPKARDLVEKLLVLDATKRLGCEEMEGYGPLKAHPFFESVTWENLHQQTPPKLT
Procedure: as §1

[3] = molecular target: T4, His-PDK1_1-556 and GST-PDK1_360-556 (Homo sapiens, UniProt O15530); assay: AlphaScreen PDK1 dimerization assay His-PDK1_1-556 / GST-PDK1_360-556; assay type: binding; details: Prestwick library screen hits; read-out: IC50, inhibition of PDK1 dimerization
T4 construct: made in house; host or cells: Sf9 insect cells (His-PDK1_1-556); HEK293 cells (GST-PDK1_360-556)
T4 sequence (O15530 1-556): T2 sequence (O15530 1-556)
Procedure: (§2) The AlphaScreen® assay was performed following the general guidelines from the manufacturer (Perkin Elmer) ([29]). In short, the assay was performed in a final volume of 25 μl in white 384-well microtiter plates (Greiner) in a standard buffer containing 50 mM Tris-HCl (pH 7.4), 100 mM NaCl, 2 mM DTT, 0.01% (v/v) Tween-20 and 0.1% (w/v) BSA, with the addition of 5 μl of beads (anti-GST coated acceptor beads and streptavidin-coated donor beads; nickel chelate-coated acceptor beads and streptavidin-coated donor beads; or nickel chelate-coated acceptor beads and GSH-coated donor beads, 20 μg/ml final concentrations for each bead type). AlphaScreen assays for His-tagged proteins and GST-fusion proteins were performed using nickel chelate-coated acceptor beads and GSH-coated donor beads; alphascreen assays for His-tagged proteins and biotinylated molecules were performed using nickel chelate-coated acceptor beads and streptavidin-coated donor beads; alphascreen assays for GST-fusion proteins and biotinylated molecules were performed using anti-GST coated acceptor beads and streptavidin-coated donor beads (Perkin Elmer).
The conditions for each AlphaScreen assay were identified in cross-titration experiments for each interaction to choose the ideal pair of concentrations within the linear range of the interactions. […] His-PDK1 and GST-fusion protein in the presence or absence of the different compounds were incubated in the dark for 60 min at room temperature and the emission of light from the acceptor beads was measured in an EnVision reader (Perkin Elmer) or Spark plate reader (Tecan). […]

GST-PDK1_1-556 = molecular target: T5, GST-PDK1_1-556 (Homo sapiens, UniProt O15530); assay: AlphaScreen GST-PDK1_1-556 / biotin-PIFtide interaction; assay type: binding
T5 construct: made in house; host or cells: HEK293 cells (transient transfection of pEBG2T); peptide synthesized by Pepscan
T5 sequence (O15530 1-556): T2 sequence (O15530 1-556)
Procedure: as §2
The interaction between GST-PDK1_1-556 and biotin-PIFtide was performed as described previously ([29], [32]) in the standard buffer, but the bead concentration was lowered to 15 μg/ml.

His-PDK1_(1-556) = molecular target: T6, His-PDK1_(1-556) (UniProt O15530 1-556); assay: AlphaScreen or HTRF; His-PDK1_(1-556) and GST-PDK1_(360-556); nickel chelate-coated acceptor beads and GSH-coated donor beads; standard buffer 50 mM Tris-HCl pH 7.4, 100 mM NaCl, 2 mM DTT, 0.01% Tween-20, 0.1% BSA; 60 min at room temperature; details: both partners purified
T6 construct: also called full-length PDK1; PDK1 FL; source: Sf9 insect cells (Bac-to-Bac baculovirus), purified (Ni-NTA, gel filtration); not shown: His, N-terminal, kept; myc, N-terminal, kept
T6 sequence (looked up): T2 sequence (O15530 1-556)

GST-PDK1_(1-556) = molecular target: T7, GST-PDK1_(1-556) (UniProt O15530 1-556); assay: AlphaScreen or HTRF; GST-PDK1_(1-556) (150 nM) and biotin-GS-022; anti-GST coated acceptor beads and streptavidin-coated donor beads; standard buffer; with or without HYG8; details: both partners purified
T7 construct: source: HEK293 cells, transient transfection of pEBG2T plasmid, purified, dialyzed to remove GSH
T7 sequence (looked up): T2 sequence (O15530 1-556)

[4] = molecular target: the molecule itself; assay: STORM-based single-molecule fluorescence intensity; TMR-Star-labelled SNAP-PDK1 diluted and adsorbed on PDDA-coated slides; 50 mM Tris-HCl pH 7.4, 100 mM NaCl, 1 mM DTT; dimers told from monomers by spot intensity

Question: With `O=P(O)(O)OC1C(OCc2ccccc2)C(OP(=O)(O)O)C(OP(=O)(O)O)C(OP(=O)(O)O)C1OP(=O)(O)O` (stereo not shown) [2-O-benzyl-IP5] as the molecule, how does the IC50 (PDK1 [1]) read?
Answer: 0.026 µM

Question: Which “effect on activity of the isolated catalytic domain of PDK1 toward T308tide” value (PDK1 [2]) does the source give for `CCCCC(=O)N(Cc1ccc(-c2ccccc2-c2nnn[nH]2)cc1)[C@H](C(=O)O)C(C)C` [valsartan, reference compound] here?
Answer: modestly increased

Question: And the ΔTm at 50 µM (PDK1_1-556; 50 μM, buffer without NaCl)?
Answer: 2.2 °C

Question: What about the “effect on temperature stability of the PDK1-HYG8 complex” value (PDK1_1-556; in presence of HYG8) of the same molecule?
Answer: did not further enhance

Question: And the “effect on thermal stability of PDK1_50-359 (catalytic domain)” value (PDK1_50-359)?
Answer: less stabilization

Question: And the IC50 [3]?
Answer: 32 µM

Question: What about the “effect on PDK1-PIFtide interaction” value (GST-PDK1_1-556) of the same molecule?
Answer: inhibited

B1: GST-PDK1_(360-556) (domain or fragment, UniProt O15530 360-556, looked up)
chain: AYLPAMSEDDEDCYGNYDNLLSQFGCMQVSSSSSSHSLSASDTGLPQRSGSNIEQYIHDLDSNSFELDLQFSEDEKRLLLEKQAGGNPWHQFVENNLILKMGPVDKRKGLFARRRQLLLTEGPHLYYVDPVNKVLKGEIPWSQELRPEAKNFKTFFVHTPNRTYYLMDPSGNAHKWCRKIQEVWRQRYQSHPDAAVQ
notes: Cloned into the BamHI-KpnI sites of pEBG2T; also called GST-PDK1-Linker-PH; GST-linker-PH domain; source: HEK293 cells, transient transfection of pEBG2T plasmid, purified, dialyzed to remove GSH
Question: Does B1 bind (His-PDK1_(1-556))?
Answer: binds

B2: biotin-GS-022 (peptide)
peptide: Biotin-RRRQFSLRRKAK
notes: synthetic peptide substrate of PDK1; source: synthetic peptide (Pepscan)
Question: Does B2 bind (GST-PDK1_(1-556))?
Answer: binds

B3: SNAP-PDK1_(50-556) (enzyme, UniProt O15530 50-556, looked up)
chain: AMDGTAAEPRPGAGSLQHAQPPPQPRKKRPEDFKFGKILGEGSFSTVVLARELATSREYAIKILEKRHIIKENKVPYVTRERDVMSRLDHPFFVKLYFTFQDDEKLYFGLSYAKNGELLKYIRKIGSFDETCTRFYTAEIVSALEYLHGKGIIHRDLKPENILLNEDMHIQITDFGTAKVLSPESKQARANSFVGTAQYVSPELLTEKSACKSSDLWALGCIIYQLVAGLPPFRAGNEYLIFQKIIKLEYDFPEKFFPKARDLVEKLLVLDATKRLGCEEMEGYGPLKAHPFFESVTWENLHQQTPPKLTAYLPAMSEDDEDCYGNYDNLLSQFGCMQVSSSSSSHSLSASDTGLPQRSGSNIEQYIHDLDSNSFELDLQFSEDEKRLLLEKQAGGNPWHQFVENNLILKMGPVDKRKGLFARRRQLLLTEGPHLYYVDPVNKVLKGEIPWSQELRPEAKNFKTFFVHTPNRTYYLMDPSGNAHKWCRKIQEVWRQRYQSHPDAAVQ
modifications: SNAP-Cell TMR-Star label on the SNAP-tag
notes: also called TMR-SNAP-PDK1
Question: Does B3 bind [4]?
Answer: binds

Source: PMC7614687, “Modulation of the substrate specificity of the kinase PDK1 by distinct conformations of the full-length protein*” (Science signaling, 2023)
